“Also recorded” adds a separate entry of the source.
What was measured:
Ki67 = Ki67 immunohistochemistry of tumor samples; assay type: in vivo, human; details: cycle 3 day 1 (N = 12), all dose levels; baseline 29.2% (N = 18); P = 0.041
Protocol: All immunohistochemistry analyses from tumor samples were performed at ICON Central Laboratories (Farmingdale, NY, USA) using the Ventana® BenchMark ULTRA™ automated staining instrument (Oro Valley, AZ, USA). Positive- and negative-control tissue and negative reagent controls were run for each marker, as well as low-ER controls for each run. Estrogen receptor levels were estimated as the number of positive tumor nuclei divided by the total number of tumor nuclei, expressed as a percentage for each receptor type. Evaluation of Ki67 was performed in accordance with Ki67 Working Group recommendations: 1) only nuclear staining was assessed as positive; 2) in cases of tumor heterogeneity (hot spots), 2 counts were performed and the average was reported; and 3) lymphocyte-rich areas were avoided when possible. Presence of activating ESR1 mutations (amino acid regions 370–381, 460–473, and 529–538) and their mutant allele fractions (MAFs) were determined in cell-free DNA (cfDNA), collected at baseline and at 8 weeks on treatment using the SafeSEQ Breast Cancer Panel (Sysmex Inostics, Baltimore, MD, USA).
In patients who underwent biomarker testing, samples collected on cycle 3 day 1 of treatment across all dose levels were compared to baseline samples to assess changes during treatment. […]

[1] = Plasma pharmacokinetics, single and multiple dose, noncompartmental; assay type: in vivo, human; details: for AUC(0-t): steady-state geometric mean AUC0–24
Protocol: All DLT analyses (phase 1a) were performed in patients enrolled in the study during cycle 1 and who either received 75% of the planned palazestrant doses or experienced a DLT during cycle 1. All PK analyses were performed in patients who received at least 1 dose of palazestrant and had adequate postbaseline PK samples for characterization of PK parameters. All safety analyses were performed and PFS assessed in patients who received at least 1 dose of palazestrant. Clinical response (CR or PR) was assessed in patients who received at least 1 cycle of palazestrant, had measurable disease at baseline, and had at least 1 postbaseline tumor assessment. CBR was assessed in patients who received at least 1 cycle of palazestrant, had at least 1 postbaseline tumor assessment, and started their first dose at least 24 weeks before data cutoff. Patients who discontinued study treatment without radiographic progression within 24 weeks from the first dose were not included in the CBR analysis. PK parameters were estimated using conventional noncompartmental methods. For CBR, estimates were accompanied by 2-sided 95% confidence intervals (95% CIs). For PFS, Kaplan–Meier analyses were used to determine medians, event-free rates, and 95% CIs. For all other outcomes, categorical data were analyzed using frequencies and percentages, and continuous data were analyzed using means (standard deviation) or medians (range), as appropriate.
Fig. 3 Steady-State Plasma Concentration–Time Profiles for Palazestrant (30 to 300 mg QD; Phase 1a/1b/2 data). Palazestrant was administered once daily at the indicated dose. Plasma samples were collected on cycle 2, day 1, at the indicated timepoints following administration to determine plasma drug concentration. Data presented are arithmetic mean and standard deviation; the heavy dashed black line represents the target (efficacious) exposure based on estradiol-supplemented preclinical models (Cmin: 226 ng/mL). Cmin, minimum plasma concentration; QD, once daily

Question: What does the source list for `CCCN1CC(Oc2ccc([C@@H]3c4[nH]c5ccccc5c4C[C@@H](C)N3CC(C)(C)F)cc2)C1` [palazestrant, Palazestrant]?
Answer: Ki67 levels on treatment (Ki67): 20.4%; steady-state plasma concentrations versus predicted efficacy threshold (226 ng/mL) ([1]; doses of ≥ 60 mg/day (60 and 120 mg/day)): reached the predicted efficacy threshold; also recorded: above the predicted efficacy threshold; AUC(0-t) ([1]; human, in vivo, 60 mg): 4030 ng·h/mL; AUC(0-t) ([1]; human, in vivo, 120 mg): 9210 ng·h/mL; half-life ([1]; human, in vivo, 120 mg, terminal half-life): 192 h; bioavailability ([1]; human, in vivo, po): readily bioavailable; distribution ([1]; in vivo): extensive tissue distribution; dose proportionality of exposure ([1]; in vivo): dose-proportional exposure; elimination ([1]; in vivo): biphasic elimination

— article PMC12210654, “Palazestrant, a novel oral Complete Estrogen Receptor Antagonist (CERAN) and Selective Estrogen Receptor Degrader (SERD), in patients with ER+/HER2− advanced or metastatic breast cancer: phase 1/2 study results” (Breast Cancer Research : BCR, 2025)
